In patent US5292669A, “Agents for the detection of substrates with hydrolase activity” (Boehringer Mannheim GmbH, priority 1992, dated 1994):

Columns and labels:
[1] = tested on: esterase from hog's liver; assay: spot test: hydrolysis of substrate on buffer-oxidation agent paper, visual colour evaluation; type: biochemical; set-up: key: +: coloration; ++: strong coloration; +++: strong and rapid coloration; conditions: potassium ferricyanide, enzyme about 1000 U/ml., ambient temperature; for Coloration pH 6: pH 6.0 fleece; for Coloration pH 9: pH 9.0 fleece
Procedure: (§1) In a spot test, there was investigated the hydrolysis of various compounds by appropriate hydrolases (aryl sulphatase, acidic and alkaline phosphatase, esterase, acetyl-β-O-glucosamidase and lipase). The base thereby liberated was simultaneously oxidized by potassium ferricyanide to the colored material and the color formation evaluated visually.
(§2) The rate of hydrolysis was evaluated visually at pH 6.0, as well as at pH 9.0, by spotting a hydrolase solution on to a substrate-buffer-oxidation agent-paper. The enzyme concentration was about 1000 U/ml. and the test temperature was ambient temperature. The non-enzymatic hydrolysis with a 0.9% aqueous sodium chloride solution as sample was evaluated for the purpose of comparison.
(§3) Impregnation solution: 100 mmole/liter potassium dihydrogen phosphate 10 mmole/liter potassium ferricyanide 2% Pluronic® F 68
(§4) The pH value was adjusted to 6.0 with a 2N aqueous solution of potassium hydroxide.
(§5) Impregnation solution: 100 mmole/liter glycine 10 mmole/liter potassium ferricyanide 2% Pluronic® 68
(§6) The pH value was adjusted to 9.0 with a 2N aqueous solution of sodium hydroxide.
(§7) Impregnation: An 8×30 cm. paper fleece (Whatman 3M) was impregnated with 8 ml. of impregnation solution and dried for 30 minutes at 50° C. in a drying cabinet.
(§8) The so impregnated buffer-oxidation agent papers were cut up into 8×2 cm. strips and post-impregnated with substrate solution. Substrate solution/impregnation solution: 5 mg. of the substrate to be tested (or the free base) were dissolved or suspended in 1 ml. methanol and, in each case, 10 μl. thereof applied to the buffer-oxidation agent papers. The solvent was evaporated with a blow drier. On to this substrate oxidation agent surface were then dosed on the hydrolase solutions and evaluated. […]

[2] = molecular target: T1, β-galactosidase labelled immune complex (Escherichia coli, UniProt P00722); assay: hCG test carrier: colour formation from galactosidase substrate; conditions: hCG-containing sample, sodium perborate/horseradish peroxidase, pH 7, within 10 minutes
[3] = molecular target: T1, β-galactosidase labelled immune complex; assay: thyroxine (T4) test strip: colour formation from galactosidase substrate; type: biochemical; conditions: T4-containing sample, sodium perborate/horseradish peroxidase, after 10 minutes
Procedure: Fleece 14 is impregnated with a conjugate of β-galactosidase with an antibody against T4.
A piece of paper (Schleicher & Schull 3512) was activated with cyanogen bromide and T4 succinimide ester bound thereon.
d) Fleece 13 serves for the sample application.
For the production of the test carrier 11, the fleece are fixed to a base film 12 as shown in FIG. 2 of the accompanying drawings.
The sample was prepared analogously to Example 15.
The test strip 11 was placed with the end 17 in the solution. The T4-containing sample penetrates into the fleece 13. From there, it flows on into fleece 14 from where it dissolves off the β-galactosidase conjugate. […] The solution which now, besides this immune complex, also contains an excess of the β-galactosidase conjugate, penetrates into fleece 15. This excess is there bound to the paper via bound T4.
The solution which still contains the immune complex penetrates into fleece 16. The process according to the invention for the detection of the β-galactosidase labelled immune complex, which represents the substance with hydrolase activity, there takes place. The more of this complex and thus also the more of T4 was present in the solution, the more strongly has the fleece 16 become red colored after 10 minutes. In the case of the absence of T4, the fleece 16 remains white.

alkaline phosphatase = assay: spot test: hydrolysis of substrate on buffer-oxidation agent paper, visual colour evaluation; type: biochemical; set-up: key: +: coloration; ++: strong coloration; +++: strong and rapid coloration; conditions: potassium ferricyanide, enzyme about 1000 U/ml., ambient temperature; for Coloration pH 6: pH 6.0 fleece; for Coloration pH 9: pH 9.0 fleece
Procedure: as §1, §2, §3, §4, §5, §6, §7, §8

[4] = tested on: N-acetyl-β-D-glucosaminidase; assay: as above; type: biochemical; set-up: key to Coloration pH 6 / Coloration pH 9: +: coloration; ++: strong coloration; +++: strong and rapid coloration
Procedure: as §1, §2, §3, §4, §5, §6, §7, §8

lipase = assay: as above; type: biochemical; set-up: key: +: coloration; ++: strong coloration; +++: strong and rapid coloration; conditions: potassium ferricyanide, enzyme about 1000 U/ml., ambient temperature
Procedure: as §1, §2, §3, §4, §5, §6, §7, §8

T1 sequence (P00722 2-1024, one chain of several): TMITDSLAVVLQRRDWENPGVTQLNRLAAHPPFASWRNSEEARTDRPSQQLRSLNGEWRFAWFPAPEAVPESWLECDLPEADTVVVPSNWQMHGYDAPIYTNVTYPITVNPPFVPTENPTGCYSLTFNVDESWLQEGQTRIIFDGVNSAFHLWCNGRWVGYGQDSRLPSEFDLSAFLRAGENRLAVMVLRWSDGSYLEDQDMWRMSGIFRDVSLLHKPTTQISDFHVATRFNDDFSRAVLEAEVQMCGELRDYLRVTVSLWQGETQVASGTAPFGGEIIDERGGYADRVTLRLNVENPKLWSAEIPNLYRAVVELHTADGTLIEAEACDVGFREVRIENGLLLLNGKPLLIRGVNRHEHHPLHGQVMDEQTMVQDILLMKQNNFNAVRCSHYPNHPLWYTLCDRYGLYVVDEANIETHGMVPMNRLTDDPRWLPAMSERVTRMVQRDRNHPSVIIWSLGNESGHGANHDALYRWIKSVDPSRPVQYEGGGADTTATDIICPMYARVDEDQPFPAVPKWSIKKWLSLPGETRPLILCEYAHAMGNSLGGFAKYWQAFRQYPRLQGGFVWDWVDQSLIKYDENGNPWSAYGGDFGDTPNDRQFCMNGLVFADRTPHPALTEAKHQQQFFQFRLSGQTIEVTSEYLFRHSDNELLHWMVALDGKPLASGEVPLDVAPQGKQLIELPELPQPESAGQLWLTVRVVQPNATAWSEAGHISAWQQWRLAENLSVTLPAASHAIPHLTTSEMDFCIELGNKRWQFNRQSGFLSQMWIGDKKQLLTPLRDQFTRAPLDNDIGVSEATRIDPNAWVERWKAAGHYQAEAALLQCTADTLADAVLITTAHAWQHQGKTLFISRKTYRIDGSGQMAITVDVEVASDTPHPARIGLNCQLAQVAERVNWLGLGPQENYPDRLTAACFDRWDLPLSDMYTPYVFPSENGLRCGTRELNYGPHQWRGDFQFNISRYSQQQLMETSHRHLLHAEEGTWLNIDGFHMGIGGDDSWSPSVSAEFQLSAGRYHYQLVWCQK

SMILES | Coloration pH 6 [1] | Coloration pH 9 [1] | Coloration pH 9 (alkaline phosphatase) | other results
CCCCC(=O)Oc1ccc(-c2nc(-c3ccc(N(C)C)cc3)c(C)[nH]2)cc1OC [Example 5c, 4-[4-(4-Dimethylaminophenyl)-5-methyl-1H-imidazol-2-yl]-2-methoxyphenyl pentanoate] | ++ | ++ | – | –
COc1ccc(-c2nc(-c3ccc(O[C@@H]4O[C@H](CO)[C@H](O)[C@H](O)[C@H]4O)c(OC)c3)[nH]c2-c2ccc(OC)cc2)cc1 [Example 12, 2-(4-β-D-Galactopyranosyloxy-3-methoxyphenyl)-4,5-bis-(4-methoxyphenyl)-I,3-imidazole] | – | – | – | colour formed in fleece 6 [2]: red color; colour of fleece 16 [3]: red colored
COc1cc(-c2nc(-c3ccc(N(C)C)cc3)c(C)s2)cc(OC)c1OC(C)=O [Example 4b, 4-[4-(4-Dimethylaminophenyl)-5-methylthiazol-2-yl]-2,6-dimethoxyphenyl acetate] | + | ++ | – | –
COc1cc(-c2nc(-c3ccc(N(C)C)cc3)c(C)o2)ccc1OC(C)=O [Example 4a, 4-[4-(4-Dimethylaminophenyl)-5-methyloxazol-2-yl]-2-methoxyphenyl acetate] | +++ | +++ | – | –
COc1cc(-c2nc(-c3ccc(N(C)C)cc3)c(C)[nH]2)ccc1OC(C)=O [Example 4, 4-[4-(4-Dimethylaminophenyl)-5-methyl-1H-imidazol-2-yl]-2-methoxyphenyl acetate] | ++ | +++ | – | –
COc1cc(-c2nc(-c3ccc(N(C)C)cc3)c(-c3ccccc3)[nH]2)cc(OC)c1OP(=O)(O)O [Example 6b, 4-[4-(4-Dimethylaminophenyl)-5-phenyl-1H-imidazol-2-yl]-2,6-dimethoxyphenyldihydrogen phosphate] | – | – | +++ | Coloration pH 6 (alkaline phosphatase): ++
COc1cc(-c2nc(-c3ccc(N(C)C)cc3)c(C)[nH]2)ccc1OP(=O)(O)O [Example 6, 4-[4-(4-Dimethylaminophenyl)-5-methyl-1H-imidazol-2-yl]-2-methoxyphenyl dihydrogen phosphate] | – | – | ++ | –
CCC(=O)Oc1ccc(-c2nc(-c3ccc(N(C)C)cc3)c(C)[nH]2)cc1OC [Example 5a, 4-[4-(4-Dimethylaminophenyl)-5-methyl-1H-imidazol-2-yl]-2-methoxyphenyl propanoate] | + | ++ | – | –
COc1cc(-c2nc(-c3ccc(N(C)C)cc3)c(C)o2)ccc1OP(=O)(O)O [Example 7, 4-[4-(4-Dimethylaminophenyl)-5-methyl-oxazol-2-yl]-2-methoxyphenyl dihydrogen phosphate] | – | – | ++ | Coloration pH 6 (alkaline phosphatase): +
COc1cc(-c2nc(-c3ccc(N(C)C)cc3)c(C)[nH]2)ccc1O[C@@H]1O[C@H](CO)[C@@H](O)[C@H](O)[C@H]1NC(C)=O [Example 8, {4-[4-(4-Dimethylaminophenyl)-5-methyl-1H-imidazol-2-yl]-2-methoxyphenyl}-2-acetamido-2-deoxy-ε-D-glucopyranoside] | – | – | – | suitability as substrate (strong blue coloration) ([4]; at pH 6 and pH 9): very good substrate; Coloration pH 6 ([4]; pH 6.0 fleece, potassium ferricyanide, enzyme about 1000 U/ml., ambient temperature, visual): +++; Coloration pH 9 ([4]; pH 9.0 fleece, potassium ferricyanide, enzyme about 1000 U/ml., ambient temperature, visual): +++
COc1cc(-c2nc(-c3ccc(N(C)C)cc3)c(C)[nH]2)cc(OC)c1OP(=O)(O)O [Example 6a, 4-[4-(4-Dimethylaminophenyl)-5-methyl-1H-imidazol-2-yl]-2,6-dimethoxyphenyldihydrogen phosphate] | – | – | +++ | –
CCCCCCCC(=O)Oc1ccc(-c2nc(-c3ccc(N(C)C)cc3)c(C)[nH]2)cc1OC [Example 5d, 4-[4-(4-Dimethylaminophenyl)-5-methyl-1H-imidazol-2yl]-2-methoxyphenyl octanoate] | ++ | +++ | – | –
COc1cc(-c2nc(-c3ccc(N(C)C)cc3)c(-c3ccc(N(C)C)cc3)o2)cc(OC)c1OP(=O)(O)O [Example 7a, 4-[4,5-Bis-(4-dimethylaminophenyl)-oxazol-2-yl]-2,6-dimethoxyphenyl dihydrogen phosphate] | – | – | +++ | Coloration pH 6 (alkaline phosphatase): ++
COc1cc(-c2nc(-c3ccc(N(C)C)cc3)c(-c3ccc(N(C)C)cc3)[nH]2)cc(OC)c1OP(=O)(O)O [Example 6c, 4-[4,5-Bis-(4-dimethylaminophenyl)-1H-imidazol-2-yl]-2,6-dimethoxyphenyl dihydrogen phosphate] | – | – | ++ | Coloration pH 6 (alkaline phosphatase): +
CCCC(=O)Oc1ccc(-c2nc(-c3ccc(N(C)C)cc3)c(C)[nH]2)cc1OC [Example 5b, 4-[4-(4-Dimethylaminophenyl)-5-methyl-1H-imidazol-2-yl]-2-methoxyphenyl butanoate] | ++ | +++ | – | Coloration pH 6 (lipase; pH 6.0 fleece): ++; Coloration pH 9 (lipase; pH 9.0 fleece): +++
CCCCCCCCCCCC(=O)Oc1ccc(-c2nc(-c3ccc(N(C)C)cc3)c(C)[nH]2)cc1OC [Example 5, 4-[4-(4-Dimethylaminophenyl)-5-methyl-1H-imidazol-2-yl]-2-methoxyphenyl dodecanoate] | + | ++ | – | –
COc1cc(-c2nc(-c3ccc(N(C)C)cc3)c(-c3ccc(N(C)C)cc3)[nH]2)cc(OC)c1OC(C)=O [Example 4d, 4-[4,5-Bis-(4-dimethylaminophenyl)-1H-imidazol-2-yl]-2,6-dimethoxyphenyl acetate] | ++ | ++ | – | –
